{
  "source": "patent US8642801B2",
  "about": "(BHI Limited Partnership, priority 2003, dated 2014)",
  "target": "T1, Aβ40 and Aβ42 peptides in plasma and brain of TgCRND8 mice (Homo sapiens, UniProt P05067)",
  "T1 construct": "ELISA using Human Aβ40 and Aβ42 Fluorometric ELISA kits from Biosource; from tissue; host or cells: plasma and brain homogenate of TgCRND8 transgenic mice (hAPP transgene)",
  "assay": "Short term treatment in adult transgenic CRND8 mice overexpressing βAPP: Aβ levels in plasma and brain by ELISA",
  "assay_type": "in vivo, Mouse",
  "conditions": "TgCRND8 mice",
  "text": "Transgenic mice, […]8, expressing the human amyloid precursor protein (hAPP) develop a pathology resembling Alzheimer's disease. In particular, high levels of Aβ40 and Aβ 42 have been documented in the plasma and the brain of these animals at 8-9 weeks of age, followed by early accumulation of amyloid plaques similar to the senile plaques observed in AD patients. These animals also display progressive cognitive deficits that parallel the appearance of degenerative changes. See, […], et al., J. Biol. Chem. 276, 21562-70 (2001). The short term therapeutic effect of 19 compounds of the invention was studied. […] The following abbreviations are used to designate these animals from the 3rd and 4th generation backcross in the present protocol: TgCRND8-2.B6C3F1(N3); TgCRND8-2.B6C3F1(N4). Baseline animals (Group 1) consisted of naive TgCRND8-2. B6C3F1(N3) at 11±1 weeks of age. These mice were used to determine the Aβ levels in the plasma and brain of naive transgenic animals at the initiation of treatment. […] At the end of the treatment periods, plasma and perfused brains were collected for quantification of Aβ levels. […] Plasma samples were immediately frozen and stored at -80° C. pending analysis. The brains were removed, frozen, and stored at -80° C. awaiting analysis. […] Samples were spun at 15000 g for 20 minutes and the supernatants were transferred to fresh tubes. […] The tubes were vortexed for 30 seconds and frozen at -80° C. […] Samples were thawed at room temperature, sonicated at 80° C. for 15 minutes and frozen again. This cycle was repeated 3 times to ensure homogeneity and samples were returned to -80° C. pending analysis. Aβ levels were evaluated in plasma and brain samples by ELISA using Human Aβ40 and Aβ42 Fluorometric ELISA kits from Biosource (Cat. […] In short, samples were thawed at room temperature, sonicated for 5 minutes at 80° C. (sonication for brain homogenates; no sonication for plasma samples) and kept on ice. Aβ peptides were captured using 100 μl of the diluted samples to the plate and incubated without shaking at 4° C. overnight. The samples were aspirated and the wells were rinsed 4 times with wash buffer obtained from the Biosource ELISA kit. The anti-Aβ40 or anti-Aβ42 rabbit polyclonal antiserum (specific for the Aβ40 or Aβ42 peptide) was added (100 μl) and the plate was incubated at room temperature for 2 hours with shaking. The wells were aspirated and washed 4 times before adding 100 μl of the alkaline phosphatase labeled anti-rabbit antibody and incubating at room temperature for 2 hours with shaking. The plates were then rinsed 5 times and the fluorescent substrate (100 μl) was added to the plate. The plate was incubated for 35 minutes at room temperature and the plate was read using a titer plate reader at an excitation wavelength of 460 nm and emission at 560 nm Compounds were scored based on their ability to modulate levels of Aβ peptides in the plasma and the cerebral soluble/insoluble levels in the brain. Levels of Aβ observed in the plasma and brain of treated animals were normalized using values from vehicle-treated (water) or methylcellulose-treated control groups and ranked according to the strength of the pharmacological effect. Increases in the levels of Aβ peptides are indicated using “+” symbols, while decreases in the levels of Aβ peptides are indicated using “-” symbols. The strongest effects are recorded as “+++” or “- - -” while the weakest are shown as “+” or “-”.",
  "key": {"[1]": {"conditions": "Brain Homogenate Methylcellulose Group, Day 14, 250 mg/kg daily oral"}, "[2]": {"conditions": "Brain Homogenate Methylcellulose Group, Day 28, 250 mg/kg daily oral"}, "[3]": {"conditions": "Plasma Methylcellulose Group, Day 28, 250 mg/kg daily oral in 1% methylcellulose, normalized to methylcellulose control"}, "[4]": {"conditions": "Brain Homogenate Vehicle Group, Day 14, 250 mg/kg daily"}, "[5]": {"conditions": "Brain Homogenate Vehicle Group, Day 28, 250 mg/kg daily"}, "[6]": {"conditions": "Plasma Vehicle Group, Day 14, 250 mg/kg daily subcutaneous, normalized to water vehicle control"}},
  "data": [
    {"smiles": "O=S(=O)(O)CCCNC12CC3CC(CC(C3)C1)C2", "note": "[BW, 3-(1-adamantyl)amino-1-propanesulfonic acid]", "values": [
      {"measurement": "Brain homogenate Aβ40 Change Insoluble", "setting": "[1]", "result": "−−− (decreases of 39% or more are scored as “− − −”)"},
      {"measurement": "Brain homogenate Aβ42 Change Insoluble", "setting": "[1]", "result": "−−− (decreases of 39% or more are scored as “− − −”)"},
      {"measurement": "Brain homogenate Aβ42 Change Soluble", "setting": "[1]", "result": "−− (decreases of 20 to 38% are scored as “− −”)"},
      {"measurement": "Brain homogenate Aβ40 Change Insoluble", "setting": "[2]", "result": "− (Decreases in the levels of Aβ of 5 to 19% are scored as “−”)"},
      {"measurement": "Brain homogenate Aβ40 Change Soluble", "setting": "[2]", "result": "− (Decreases in the levels of Aβ of 5 to 19% are scored as “−”)"},
      {"measurement": "Brain homogenate Aβ42 Change Insoluble", "setting": "[2]", "result": "−− (decreases of 20 to 38% are scored as “− −”)"},
      {"measurement": "Brain homogenate Aβ42 Change Soluble", "setting": "[2]", "result": "− (Decreases in the levels of Aβ of 5 to 19% are scored as “−”)"},
      {"measurement": "Plasma Aβ42 Change", "setting": "[3]", "result": "+ (increases in the levels of Aβ (relative to untreated control) of 20 to 39% are scored as “+”)"}
    ]},
    {"smiles": "CC(C)(C)NCCCS(=O)(=O)O", "note": "[BX, 3-(t-butyl)amino-1-propanesulfonic acid]", "values": [
      {"measurement": "Brain homogenate Aβ40 Change Insoluble", "setting": "[4]", "result": "−−− (decreases of 39% or more are scored as “− − −”)"},
      {"measurement": "Brain homogenate Aβ40 Change Soluble", "setting": "[4]", "result": "− (Decreases in the levels of Aβ of 5 to 19% are scored as “−”)"},
      {"measurement": "Brain homogenate Aβ42 Change Insoluble", "setting": "[4]", "result": "−−− (decreases of 39% or more are scored as “− − −”)"},
      {"measurement": "Brain homogenate Aβ42 Change Soluble", "setting": "[4]", "result": "−− (decreases of 20 to 38% are scored as “− −”)"},
      {"measurement": "Brain homogenate Aβ40 Change Insoluble", "setting": "[5]", "result": "−−− (decreases of 39% or more are scored as “− − −”)"},
      {"measurement": "Brain homogenate Aβ40 Change Soluble", "setting": "[5]", "result": "−−− (decreases of 39% or more are scored as “− − −”)"},
      {"measurement": "Brain homogenate Aβ42 Change Insoluble", "setting": "[5]", "result": "− (Decreases in the levels of Aβ of 5 to 19% are scored as “−”)"},
      {"measurement": "Brain homogenate Aβ42 Change Soluble", "setting": "[5]", "result": "−− (decreases of 20 to 38% are scored as “− −”)"},
      {"measurement": "Plasma Aβ40 Change", "setting": "[6]", "result": "+++ (increases of 70% or higher are scored as “+ + +”)"},
      {"measurement": "Plasma Aβ42 Change", "setting": "[6]", "result": "++ (increases of 40 to 69% are scored as “++”)"},
      {"measurement": "Plasma Aβ40 Change", "setting": "Plasma Vehicle Group, Day 28, 250 mg/kg daily subcutaneous, normalized to water vehicle control", "result": "+++ (increases of 70% or higher are scored as “+ + +”)"}
    ]},
    {"smiles": "O=S(=O)(O)CCCNC1C2CC3CC(C2)CC1C3", "note": "(stereo not drawn) [BZ, 3-(2-adamantyl)amino-1-propanesulfonic acid]", "values": [
      {"measurement": "Brain homogenate Aβ40 Change Insoluble", "setting": "[1]", "result": "−−− (decreases of 39% or more are scored as “− − −”)"},
      {"measurement": "Brain homogenate Aβ42 Change Insoluble", "setting": "[1]", "result": "−− (decreases of 20 to 38% are scored as “− −”)"},
      {"measurement": "Brain homogenate Aβ40 Change Insoluble", "setting": "[2]", "result": "−− (decreases of 20 to 38% are scored as “− −”)"},
      {"measurement": "Brain homogenate Aβ40 Change Soluble", "setting": "[2]", "result": "−− (decreases of 20 to 38% are scored as “− −”)"},
      {"measurement": "Brain homogenate Aβ42 Change Insoluble", "setting": "[2]", "result": "−− (decreases of 20 to 38% are scored as “− −”)"},
      {"measurement": "Plasma Aβ40 Change", "setting": "Plasma Methylcellulose Group, Day 14, 250 mg/kg daily oral in 1% methylcellulose, normalized to methylcellulose control", "result": "+ (increases in the levels of Aβ (relative to untreated control) of 20 to 39% are scored as “+”)"},
      {"measurement": "Plasma Aβ40 Change", "setting": "[3]", "result": "++ (increases of 40 to 69% are scored as “++”)"},
      {"measurement": "Plasma Aβ42 Change", "setting": "[3]", "result": "++ (increases of 40 to 69% are scored as “++”)"}
    ]}
  ]
}
